The supplement of paper PMC10307832

Legend:
Test in all cases: relative viability (nuclei count vs DMSO), 5 days (fraction); higher = more cells survive
[1] = compound: CC1=CC(=CC=C1)NC2=NC(=CS2)C3=CC=NC=C3 + N=C(N)NC(=N)NCCc1ccccc1 [Phenformin] (partner 250 µM)
How it was run: (§1)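 A single step with final 0.05% Triton X-100, 1% formaldehyde and 1 ug/ml Hoechst fixed the cells and stained nuclei 5 days after treatment. Lung cancer cell lines in 1536-well plates had been treated by pin tool the day after seeding with one drug alone or a fixed anchor-drug dose plus five library-drug doses (not always all listed) in √10 steps, and nuclei were counted on 4× images. Relative viability is the ratio of nuclei in treated wells to nuclei in vehicle wells, taken as the median of duplicate plates.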

[2] = compound: CC1=CC(=CC=C1)NC2=NC(=CS2)C3=CC=NC=C3 + CC(=O)Nc1cccc(-n2c(=O)n(C3CC3)c(=O)c3c(Nc4ccc(I)cc4F)n(C)c(=O)c(C)c32)c1 [Trametinib] (partner 0.02 µM)
How it was run: as §1

[3] = compound: Cc1ccc(NC(=O)c2ccc(CN3CCN(C)CC3)cc2)cc1Nc1nc(-c2cccnc2)cs1 [Masitinib] + CC1(C)CCC(c2ccc(Cl)cc2)=C(CN2CCN(c3ccc(C(=O)NS(=O)(=O)c4ccc(N[C@H](CCN5CCOCC5)CSc5ccccc5)c(S(=O)(=O)C(F)(F)F)c4)cc3)CC2)C1 [Navitoclax] (partner 0.5 µM)
How it was run: as §1

[4] = compound: CC1=CC(=CC=C1)NC2=NC(=CS2)C3=CC=NC=C3 + Nc1ncn([C@H]2C[C@H](O)[C@@H](CO)O2)c(=O)n1 [Decitabine] (partner 2 µM)
How it was run: as §1

Cell Line | relative viability ([1]; first compound 0.08 µM) | relative viability ([1]; first compound 0.253 µM) | relative viability ([1]; first compound 0.8 µM) | relative viability ([1]; first compound 2.53 µM) | relative viability ([1]; first compound 8 µM) | relative viability ([2]; first compound 0.08 µM) | relative viability ([2]; first compound 0.253 µM) | relative viability ([2]; first compound 0.8 µM) | relative viability ([2]; first compound 2.53 µM) | relative viability ([2]; first compound 8 µM) | relative viability ([3]; first compound 0.01 µM) | relative viability ([3]; first compound 0.03162 µM) | relative viability ([3]; first compound 0.1 µM) | relative viability ([3]; first compound 0.3162 µM) | relative viability ([3]; first compound 1 µM) | relative viability ([4]; first compound 0.08 µM) | relative viability ([4]; first compound 0.253 µM) | relative viability ([4]; first compound 0.8 µM) | relative viability ([4]; first compound 2.53 µM) | relative viability ([4]; first compound 8 µM)
CAL-12T | 0.513 | 0.518 | 0.604 | 0.537 | 0.516 | 0.282 | 0.325 | 0.342 | 0.236 | 0.305 | 1.52 | 1.32 | 1.26 | 1.17 | 1.25 |  |  |  |  | 
SK-LU-1 | 0.452 | 0.471 |  | 0.731 | 0.63 | 0.479 | 0.492 | 0.361 | 0.568 | 0.351 | 0.927 | 1.05 | 1.04 | 1 | 0.869 | 0.624 | 0.625 | 0.563 | 0.617 | 0.726
NCI-H1651 | 0.346 | 0.318 | 0.34 | 0.33 | 0.316 | 0.825 | 0.795 | 0.755 | 0.82 | 0.794 | 1.11 | 1 | 1.15 | 1.02 | 1.1 | 0.558 | 0.55 | 0.66 | 0.475 | 0.628
BEN | 0.27 | 0.254 | 0.285 | 0.266 | 0.25 | 0.82 | 1.16 | 0.99 | 0.994 | 0.898 | 0.066 | 0.0657 | 0.066 | 0.0612 | 0.194 | 0.636 | 0.687 | 0.772 | 0.588 | 0.781
EMC-BAC-2 | 0.415 | 0.505 | 0.58 | 0.541 | 0.491 | 0.798 |  | 1.01 | 0.879 | 0.823 | 1.08 | 0.962 | 1.16 | 1.37 | 1.45 | 0.916 |  | 0.91 | 0.918 | 0.884
LXF-289 | 0.494 | 0.522 | 0.514 | 0.487 | 0.487 | 0.639 | 0.674 | 0.648 | 0.739 | 0.606 | 0.843 | 0.927 | 0.966 | 0.992 | 0.934 | 0.353 | 0.383 | 0.391 | 0.375 | 0.363
ABC-1 | 0.229 | 0.223 | 0.193 | 0.221 | 0.31 |  |  |  |  |  |  |  |  |  |  | 1.01 |  | 1.23 | 0.933 | 0.626
NCI-H358 | 0.371 | 0.35 | 0.353 | 0.402 | 0.387 | 0.121 | 0.141 | 0.133 | 0.142 | 0.136 |  |  |  |  |  | 0.233 | 0.22 | 0.208 | 0.249 | 0.225
